For data set [1], the system named is ventricular arrhythmia caused by aconitine. The experiment in a line: animal or person. The conditions noted are these: Rattus norvegicus, iv, read-out: ED50 I.V., dose increasing by 50% the perfusion time of aconitine.
A further data set in a line: in vivo. The conditions noted are these: rat, iv.
Data set [2] can be described thus: Acute toxicity (LD50) in mice. Particulars: mouse, in vivo. The protocol: The acute toxicities and symptomatologies of the compounds according to the present invention have been determined on CD1 (Charles River) male mice by I.V. and oral methods. The LD50's were calculated, after 3 days of observation, by the cumulative method of J. J. Reed & H. Muench, Amer. J. Hyg., 27, 493, 1938, which is relied on herein and the disclosure incorporated by reference.

For data set [3], the system named is uptake of serotonine by human blood platelets. The experiment in a line: Inhibition of the uptake of serotonine by human blood platelets. It counts as cell-based. The conditions noted are these: for IC50: Platelet, read-out: Inhibition of the Uptake of serotonine I50; for times less effective than its epimer as inhibitor of serotonine uptake: Example 7 vs Example 1, Example 9 vs Example 3. From the text: It is known that the uptake of serotonine by the blood platelets is a good model or indication of the uptake of this amine by neurons [see J. TUOMISTO, J. Pharm., Pharmac., 26 92 (1974)]. When it is applied to the investigation of medicaments, a method which brings into play the blood platelets presents great interest because it makes it possible to use human cells, which enables the method to give a good anticipation of the effect of the products on human beings.
(§1) The capacity of the products for inhibiting the uptake of serotonine or for causing its release has been shown on human blood platelets according to J. L. DAVID et al. "Platelets Function and Thrombosis, a Review of Methods" p. 335 (Plenum Press, London, 1972).
(a) Inhibition of the uptake of serotonine
The results are expressed by a 50% inhibiting dose I50, which represents the product dose in micromoles per liter reducing the uptake of serotonine by 50%.

In data set [4] the test system is release of serotonine by human blood platelets. The experiment in a line: Release of serotonine from human blood platelets. It counts as cell-based. Particulars: for activation at 5 µM / activation at 50 µM: Homo sapiens, Platelet, read-out: Percentage of increase of the release of serotonine; for release of serotonine compared with p-chloro amphetamine, in words / release of serotonine, in words: human blood platelets.
Description: as §1
(b) Release of serotonine
The action of the products on the release of serotonine has been tested at two concentrations: 5×10^-6 mole per liter and 5×10^-5mole per liter.
The results obtained are expressed by a percentage of increase of the release of serotonine in comparison with the results obtained with the controls.

For data set [5], the target named is benzodiazepine receptors in rat brain membranes. The experiment in a line: Inhibition of specific ^3 H-diazepam binding to rat brain membranes. Particulars: for Ki: read-out: Ki, Inhibition of Specific ^3 H-Diazepam Binding To Rat Brain Membranes, rat brain membranes, ^3 H-diazepam.
Data set [6] relates to ventricular arrhythmia caused by aconitine. The conditions noted are these: aconitine test, rats.
The test system of data set [7] is vasoconstriction of the nasal mucous membrane. Description: Vascular action: potentiation of the vascular effects of serotonine in anaesthetized dog. The format is in vivo.
Description: The potentiation of the vascular effects of serotonine is shown according to the procedure of J. J. Loux, Arch. […] The modified method consists in injecting into the carotid of an anaesthetized dog increasing and cumulated doses of serotonine. […] This increase was measured by connecting the nasal sinus, hermetically isolated from outside, with a pressure gauge.
For data set [8], the system named is sleep induced by serotonine. Description: Potentiation of sleep induced by serotonine in chickens. The format is in vivo, chicken. The method, then:
The role of the cerebral serotonine in sleep is a well-known fact as reported by M. Jouvet and Coll., C. R. Acad. Sc.
Groups of 12 chickens were used, to which were administered intravenously serotonine at a dosage level of 0.1 mg/kg.

The subject of another data set is 5-HTP-induced quivering. Description: Potentiation test of 5-hydroxytryptophan (5-HTP), quivering in mice. The conditions noted are these: for ED50: Mus musculus, sc, read-out: ED 50, dose giving an average indication of quivering equal to 1; for inherent effect (in the absence of 5-HTP): dose of 25 mg/kg, control product groups. The format is in vivo, CD1 (Charles River) male mice. From the text:
(2) Potentialing Effect of 5-HTP:
It is known that the administration of 5-HTP parenterally in mice causes, with large doses, a characteristic behavior, i.e. quivering, torsions of the trunk, displacement of the rear legs, shaking of the head and increased general motility. To show a potentiating power with respect to 5-HTP, the present inventors have therefore used to advantage one of the characteristic properties of the precursor of serotonine, i.e. quivering. The procedure used is inspired by that of C. […] Groups of 8 male mice were used. The chronological order of the test was as follows for the groups treated with both 5-HTP and the products according to the invention.
At time t=30 min., the product to the tested was injected subcutaneously (S.C.) in the form of a 9% aqueous solution of NaCl.
At time t=75 min., the quivering in each animal was measured using the following scale:
1=quivering of average intensity
The chronological order was the same for the "control 5-HTP" and "control product" groups except that, in the first case, a 9% aqueous solution of NaCl was injected in the S.C. manner instead of the product solution and, in the second case, a 9% aqueous solution of NaCl was injected in the I.P. manner instead of the 5-HTP solution. The "control product" groups received the same doses of the tested product as the groups treated with both 5-HTP and the product in order to discover any possible effect inherent in the product.
The number of points for each group was totalled and the average indication of quivering was determined.

Data set [9] has as its system uptake of serotonine by synaptosomes of the rat's brain. Description: Inhibition of the uptake of serotonine by synaptosomes of the rat's brain. The conditions noted are these: in vitro, read-out: 50% inhibiting dose I50, uptake of serotonine by synaptosomes. The format is biochemical.
The mark [10] stands for this setting: iv, I.V., Table 4 (toxicity; species not given), read-out: LD50 I.V.
The mark [11] stands for this setting: po, Table 6, P.O., mice, 3 days of observation, read-out: LD50 P.O.
The mark [12] stands for this setting: 5 × 10^-5 mole per liter, in comparison with controls.
Setting [13] is: 5 × 10^-6 mole per liter, in comparison with controls.

The structures appear in SMILES notation. Where two headings read alike, the source gives them in different places.

Regarding `CC(C)N(CCC(C(N)=O)(c1ccccc1)c1ccccn1)C(C)C` (stereo not drawn) [Disopyramide, reference compound], the ED50 in [1] amounted to 4 mg/kg. In “in vivo”, the selectivity ratio was 6.5. The LD50 at 72 h in data set [2] (setting [10]) came to 26 mg/kg.
Turning to `C=C[C@H]1C[N@@]2CC[C@H]1C[C@@H]2[C@@H](O)c1ccnc2ccc(OC)cc12` [Quinidine, reference compound], the ED50 in [1] worked out at 7.5 mg/kg. Also, the selectivity ratio in the data set “in vivo” was determined as 9.3. The LD50 at 72 h in [2] (setting [10]) is 70 mg/kg.
Turning to `C=C[C@@H]1CNCC[C@H]1CCCc1ccnc2ccc(OC)cc12` [Example 7, 4(R)-[3-(6-methoxy 4-quinolyl)propyl]3(S)-vinyl piperidine], the IC50 in [3] (Homo sapiens) was determined as 1000 nM. The “times less effective than its epimer as inhibitor of serotonine uptake” value in data set [3] (human blood platelets) is 100 times. Also, the LD50 at 72 h in [2] (setting [11]) was found to be 225 mg/kg. For the same compound, in data set [4], the activation at 5 µM was determined as 40%; the activation at 50 µM was determined as 78%; the “release of serotonine compared with p-chloro amphetamine, in words” value is reported as “even more effective than p-chloro amphetamine”; the “release of serotonine, in words” value is given as “powerful agents for the release of serotonine”.
Take `CC[C@H]1CNCC[C@H]1CCCc1ccnc2ccccc12` [Example 5, 4(R)-[3-(4-quinolyl)propyl] 3(R)-ethyl piperidine]: in data set [5], the Ki is 8000 nM. In data set [1], the ED50 came to 2.3 mg/kg. Also, the selectivity ratio in the data set “in vivo” turned out to be 9.6. The values for the LD50 at 72 h in data set [2] (setting [10]) and in data set [2] (setting [11]) were 22 mg/kg and 600 mg/kg, respectively. For the same compound, the “antiarythmic effectiveness compared with quinidine and disopyramide, in words” value in data set [6] was “more effective than the reference products (quinidine and disopyramide)”.
As for `CC[C@@H]1CNCC[C@H]1CCCc1ccnc2ccc(OC)cc12` [Example 9, 4(R)-[3-(6-methoxy 4-quinolyl)propyl]3(S)-ethyl piperidine], the Ki in data set [5] is 5000 nM. For the same compound, in data set [3] (human blood platelets), the IC50 amounted to 100 nM and the “times less effective than its epimer as inhibitor of serotonine uptake” value is ≥ 10 times. In addition, the LD50 at 72 h in data set [2] (setting [11]) was 200 mg/kg. For the same compound, the activation at 50 µM in data set [4] (setting [12]) was 69%. Further, the activation at 5 µM in [4] (setting [13]) was 30%. Further, in [4], the “release of serotonine compared with p-chloro amphetamine, in words” value is “even more effective than p-chloro amphetamine” and the “release of serotonine, in words” value is “powerful agents for the release of serotonine”.
Take `CN(C)CCCN1c2ccccc2CCc2ccccc21` [Imipramine, reference compound]: the “Ki, Inhibition of Specific ^3 H-Diazepam Binding To Rat Brain Membranes” value in data set [5] is “inactive”. For the same compound, in data set [3] (Homo sapiens), the IC50 turned out to be 400 nM. Moreover, in [4], the activation at 5 µM amounted to 3% and the activation at 50 µM turned out to be 13%.
As to `NCCc1c[nH]c2ccc(O)cc12` [serotonine, reference compound], the minimal effective dose in data set [7] (Canis lupus familiaris, serotonine into the carotid, increasing and cumulated doses, read-out: dose from which an increase of the total volume of sinus was observed) is ≥ 0.0002 mg/kg. Further, the “chickens sent to sleep” value in data set [8] (serotonine 0.1 mg/kg I.V. alone) was 25%.
In the case of `CC(N)Cc1ccc(Cl)cc1` (stereo not drawn) [p-Chloro amphetamine, p-chloro amphetamine, reference compound], in [3] (Homo sapiens), the IC50 was determined as 12000 nM. Besides, in data set [4], the activation at 5 µM was determined as 6% and the activation at 50 µM is 51%.
For `C=C[C@H]1CNCC[C@H]1CCCc1ccnc2ccc(OC)cc12` [Example 1, 4(R)-[3-(6-methoxy 4-quinolyl)propyl] 3(R)-vinyl piperidine], the “potentiation of vascular effect of serotonine (pressure decrease measured by the gauge)” value in data set [7] (1 μg/kg I.V., 0.05 μg/kg of serotonine) is on record as “twice greater”. In data set [1], the ED50 was 2 mg/kg. Moreover, the IC50 in [3] (Homo sapiens) turned out to be 10 nM. For the same compound, in [2] (setting [10]), the LD50 at 72 h was found to be 30 mg/kg. For the same compound, the LD50 at 72 h in data set [2] (setting [11]) turned out to be 600 mg/kg. The “antiarythmic effectiveness compared with quinidine and disopyramide, in words” value in data set [6] was “more effective than the reference products (quinidine and disopyramide)”. Moreover, the “chickens sent to sleep” value in [8] (product of Example 1 at 3 mg/kg I.V. + serotonine 0.1 mg/kg I.V.) came to 60%. For the same compound, in [4], the activation at 5 µM stood at 7% and the activation at 50 µM is 32%. For the same compound, in the data set on 5-HTP-induced quivering, the ED50 came to 14 mg/kg and the “inherent effect (in the absence of 5-HTP)” value is listed as “did not have any inherent effect”.
With `C=C[C@H]1CNCC[C@H]1CCCc1ccnc2ccccc12` [Example 2, 4(R)-[3-(4-quinolyl)propyl] 3(R)-vinyl piperidine], in data set [5], the Ki is 2500 nM. Also, the ED50 in data set [1] stood at 12 mg/kg; in the data set on 5-HTP-induced quivering (product S.C., 5-HTP 150 mg/kg I.P., male mice), 12 mg/kg. In addition, the IC50 in [9] was found to be 35 nM. For the same compound, in the data set “in vivo”, the selectivity ratio stood at 2.5. Besides, the LD50 at 72 h in [2] (setting [10]) was determined as 30 mg/kg; in data set [2] (setting [11]), 525 mg/kg. For the same compound, the “inherent effect (in the absence of 5-HTP)” value in the data set on 5-HTP-induced quivering was “did not have any inherent effect”.
With `CC[C@H]1CNCC[C@H]1CCCc1ccnc2ccc(OC)cc12` [Example 3, 4(R)-[3-(6-methoxy 4-quinolyl)propyl] 3(R)-ethyl piperidine], the Ki in data set [5] worked out at 4500 nM. In addition, the ED50 in [1] was 0.7 mg/kg. In addition, the figures for the IC50 in [9] and in data set [3] (human blood platelets) were 8 nM and 10 nM, respectively. The selectivity ratio in the data set “in vivo” worked out at 30. Further, the LD50 at 72 h in [2] (setting [10]) came to 21 mg/kg; in [2] (setting [11]), 600 mg/kg. For the same compound, the “antiarythmic effectiveness compared with quinidine and disopyramide, in words” value in data set [6] is “more effective than the reference products (quinidine and disopyramide)”. Moreover, in data set [4] (setting [12]), the activation at 50 µM is 67%. In data set [4] (setting [13]), the activation at 5 µM is 34%. Besides, the “release of serotonine compared with p-chloro amphetamine, in words” value in data set [4] was “even more effective than p-chloro amphetamine”. Also, the “release of serotonine, in words” value in data set [4] was “powerful agents for the release of serotonine”.
As to `c1ccc2c(CCCC3CCNCC3)ccnc2c1` [Example 4, 4-[3-(4-quinolyl)propyl]piperidine], the Ki in [5] was found to be 3500 nM. In data set [1], the ED50 came out at 15 mg/kg. Further, the selectivity ratio in “in vivo” is 2.8. The LD50 at 72 h in data set [2] (setting [10]) is 42 mg/kg; in [2] (setting [11]), 600 mg/kg.

The LD50 is the dose at which mortality reaches 50%. A word on the Ki: it is the equilibrium dissociation constant of an inhibitor or competing ligand from its target.

(Values after patent publication US4237139A, “4-(3-(4-Quinolyl)propyl)piperidines, their preparation and their use as medicines” (Pharmindustrie, priority 1976, dated 1980).)
